The source of these data is ChEMBL document CHEMBL2057121, “Selective non-lipid modulator of LPA5 activity in human platelets” (Bioorg Med Chem Lett, 2012).

One may read the IC50 as the concentration needed to halve the response being measured.

Assay [1] has as its target Lysophosphatidic acid receptor 5 (Homo sapiens, UniProt Q9H1C0). Briefly: Antagonist activity at human recombinant LPA5 receptor expressed in rat RH7777 cells assessed as inhibition of hexadecyl-LPA-induced effect. The class given is functional, cell-based.
Assay [2] has as its target Lysophosphatidic acid receptor 1/3 (Homo sapiens, UniProt Q9UBY5+Q92633). Briefly: Antagonist activity at LPA1/3 receptor in human isolated platelets assessed as inhibition of collagen-induced platelet aggregation after 3 mins. In kind it is functional.

Lysophosphatidic acid receptor 5, sequence (Q9H1C0 whole entry): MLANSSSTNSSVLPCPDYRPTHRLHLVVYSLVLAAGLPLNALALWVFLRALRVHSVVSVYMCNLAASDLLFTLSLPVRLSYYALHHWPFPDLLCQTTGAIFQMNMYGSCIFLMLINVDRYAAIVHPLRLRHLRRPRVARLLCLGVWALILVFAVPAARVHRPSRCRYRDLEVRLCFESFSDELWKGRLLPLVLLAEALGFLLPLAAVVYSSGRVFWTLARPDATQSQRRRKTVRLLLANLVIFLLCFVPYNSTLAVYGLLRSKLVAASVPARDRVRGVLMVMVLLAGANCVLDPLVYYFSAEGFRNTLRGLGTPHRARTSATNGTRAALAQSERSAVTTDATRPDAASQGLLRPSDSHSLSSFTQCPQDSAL

For the compound `COc1cccc(-n2nc(C(=O)O)cc2-c2ccc(C3CCCCC3)c(Cl)c2)c1`, the concentration for half-maximal inhibition (IC50) in assay [1] was 800 nM; in assay [2], > 10000 nM.
